Assay results from ChEMBL document CHEMBL1201862, “PubChem BioAssay data set” (2004).
Activity calls are given as the source filed them.

Legend:
[1] = target: Beta-lactamase (Salmonella choleraesuis (strain SC-B67), UniProt Q5J463); assay: Epi-absorbance-based counterscreen for selective VIM-2 inhibitors: dose response biochemical high throughput screening assay to identify inhibitors of TEM-1 serine-beta-lactamase.
[2] = target: T1, Beta-lactamase (Pseudomonas aeruginosa, UniProt Q79MP6); assay: inhibition of IMP-1 beta-lactamase activity – biochemical, epi-absorbance, selectivity assay for VIM-2 inhibitor project, dose response (AID 1920)
[3] = target: T1, Beta-lactamase; assay: […] counterscreen for selective VIM-2 inhibitors: dose response biochemical high throughput screening assay to identify inhibitors of IMP-1 metallo-beta-lactamase.
[4] = target: T2, Beta Lactamase (Pseudomonas aeruginosa, UniProt Q932Y6); assay: concentration-dependent VIM-2 enzyme inhibition – biochemical, epi-absorbance readout, selective inhibitors, dose response (AID 1919)
[5] = target: T2, Beta Lactamase; assay: VIM-2 CCF2 hydrolysis inhibition, assay artifact filter – biochemical, FRET readout, CCF2 substrate, artefact control for selective VIM-2 inhibitor project, dose response (AID 1926)
[6] = viability of uninfected HEp-2 cells – cell-based, HTS, cytotoxicity control for RSV inhibitor project, dose response (AID 2410); type: functional; conditions: human respiratory syncytial virus
[7] = target: Tyrosine-protein phosphatase non-receptor type 11 (Homo sapiens, UniProt Q06124); assay: PTPN11 enzyme inhibitors – biochemical, selectivity assay for STEP inhibitor project, dose response (AID 602367); type: functional; conditions: read-out: IC50_Mean
[8] = target: T3, Small ubiquitin-related modifier 1 (Homo sapiens, UniProt P63165); assay: SUMO1 protein-protein binding blockers, potency – biochemical, FRET, dose response (AID 624383); type: functional; conditions: read-out: IC50_Mean
[9] = target: Tyrosine-protein phosphatase non-receptor type 5 (Homo sapiens, UniProt P54829); assay: PTPN5 enzyme inhibition – biochemical, fluorescence intensity, uHTS hits, confirmation (AID 602372); type: functional; conditions: read-out: IC50_Mean
[10] = target: T4, Carboxy-terminal domain RNA polymerase II polypeptide A small phosphatase 1 (Homo sapiens, UniProt Q9GZU7); assay: CTDSP1 inhibitors, concentration-response, biochemical, absorbance readout, ultra-high-throughput screen actives (AID 540297); type: functional
T4 sequence (Q9GZU7 whole entry): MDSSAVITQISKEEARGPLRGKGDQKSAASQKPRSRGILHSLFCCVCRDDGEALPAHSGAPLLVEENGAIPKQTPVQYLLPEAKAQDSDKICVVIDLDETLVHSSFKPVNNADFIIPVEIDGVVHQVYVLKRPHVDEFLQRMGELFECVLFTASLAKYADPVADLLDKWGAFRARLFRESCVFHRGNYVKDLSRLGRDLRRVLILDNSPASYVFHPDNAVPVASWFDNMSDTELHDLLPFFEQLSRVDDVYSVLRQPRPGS

[11] = target: T3, Small ubiquitin-related modifier 1; assay: SUMO1 protein interaction blockers, potency – biochemical, fluorescence polarization, uHTS hits, dose response (AID 624382); type: functional; conditions: read-out: IC50_Mean
[12] = target: Dual specificity protein phosphatase 3 (Homo sapiens, UniProt P51452); assay: VHR phosphatase inhibition, dose response, selectivity assay for STEP inhibitor project, biochemical (AID 602374); type: functional; conditions: read-out: IC50_Mean
[13] = target: T5, Sentrin-specific protease 1 (Homo sapiens, UniProt Q9P0U3); assay: SENP1 catalytic domain blockers, concentration series – biochemical, kinetic FRET, dose response (AID 651697); type: functional; conditions: read-out: IC50_Mean
[14] = target: T5, Sentrin-specific protease 1; assay: Dose response confirmation of small molecule inhibitors of the catalytic domain of the SUMO protease, SENP1 in a FRET assay.; type: functional; conditions: read-out: IC50_Mean
[15] = target: DNA repair and recombination protein RAD54-like (Homo sapiens, UniProt Q92698); assay: RAD54 Holliday junction migration blockers – biochemical, fluorescence, cherry-picked samples, dose series, confirmation (AID 651657); type: functional
[16] = system: Streptococcus sp. 'group A'; assay: Streptococcus pyogenes SK(-)GAS viability under kanamycin – luminescence, BacTiterGlo, confirmation, counter-screen for streptokinase expression inhibitor project, dose response (AID 1900); type: functional, organism-based
[17] = NIH-3T3 fibroblast cytotoxicity, dose response, cytotoxicity control, cell-based, fluorescence, Alamar Blue, secondary assay (AID 2327); type: functional;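 also: NIH-3T3 mouse fibroblasts cultured with fluconazole at 8 µg/mL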
[18] = system: Streptococcus; assay: GAS UMAA2166 growth inhibition – luminescence, BacTiterGlo, counter-screen for streptokinase expression inhibitor project, dose response (AID 1915); type: functional, organism-based;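 also: potency for reduction of bacterial viability or growth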
[19] = target: T6, Streptokinase A (Streptococcus pyogenes serotype M1, UniProt P10520); assay: viability-normalized secreted streptokinase activity reduction – plasminogen activation absorbance, OD405, dose response (AID 1914); type: functional, Streptococcus pyogenes M1 GAS;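 also: secreted streptokinase activity via plasminogen activation per viability signal from cell pellet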
T6 sequence (P10520 whole entry): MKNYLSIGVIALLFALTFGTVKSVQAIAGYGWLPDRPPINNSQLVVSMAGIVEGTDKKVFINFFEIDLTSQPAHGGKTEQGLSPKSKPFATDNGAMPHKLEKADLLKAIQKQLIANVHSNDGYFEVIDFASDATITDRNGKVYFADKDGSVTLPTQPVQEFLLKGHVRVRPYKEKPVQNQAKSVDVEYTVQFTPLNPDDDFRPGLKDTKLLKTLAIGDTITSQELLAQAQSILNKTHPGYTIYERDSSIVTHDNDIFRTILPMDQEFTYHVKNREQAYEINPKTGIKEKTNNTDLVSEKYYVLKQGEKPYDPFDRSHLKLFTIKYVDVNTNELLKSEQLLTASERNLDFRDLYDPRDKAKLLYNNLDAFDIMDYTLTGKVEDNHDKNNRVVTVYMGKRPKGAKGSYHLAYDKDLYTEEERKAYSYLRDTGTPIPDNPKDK

[20] = target: T7, Neuropeptide Y receptor type 1 (Homo sapiens, UniProt P25929); assay: Fluorescence-based counterscreen for agonists of NPY-Y2: cell-based high-throughput dose response assay for agonists of NPY-Y1.; type: functional
T7 sequence (P25929 whole entry): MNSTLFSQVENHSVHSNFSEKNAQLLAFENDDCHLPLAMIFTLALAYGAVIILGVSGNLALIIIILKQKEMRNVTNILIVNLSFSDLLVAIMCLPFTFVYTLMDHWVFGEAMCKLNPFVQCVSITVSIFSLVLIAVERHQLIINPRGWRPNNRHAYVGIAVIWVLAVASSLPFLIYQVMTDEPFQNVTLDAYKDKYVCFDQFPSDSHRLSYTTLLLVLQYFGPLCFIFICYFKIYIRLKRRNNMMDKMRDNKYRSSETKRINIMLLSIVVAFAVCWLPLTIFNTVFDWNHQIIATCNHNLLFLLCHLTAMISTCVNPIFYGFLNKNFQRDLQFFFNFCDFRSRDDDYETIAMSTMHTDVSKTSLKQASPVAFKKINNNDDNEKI

[21] = fluconazole-exposed Candida albicans growth modulators – fluorescence, retest, confirmation (AID 2467); type: functional, cell-based
[22] = target: T8, Neuropeptide Y receptor type 2 (Homo sapiens, UniProt P49146); assay: Fluorescence-based cell-based high-throughput dose response assay for agonists of NPY-Y2. [Related pubchem assays: 1703 (Screening assay (CNGC inhibitors).), 1359 (Screening assay (NPY-Y2 potentiators or agonists).), 1304 (Screening assay (NPY-Y1 potentiators or agonists).), 1710 (Screening assay (NPY-Y2 agonists).), 1791 (Summary AID.)]; type: functional
T8 sequence (P49146 whole entry): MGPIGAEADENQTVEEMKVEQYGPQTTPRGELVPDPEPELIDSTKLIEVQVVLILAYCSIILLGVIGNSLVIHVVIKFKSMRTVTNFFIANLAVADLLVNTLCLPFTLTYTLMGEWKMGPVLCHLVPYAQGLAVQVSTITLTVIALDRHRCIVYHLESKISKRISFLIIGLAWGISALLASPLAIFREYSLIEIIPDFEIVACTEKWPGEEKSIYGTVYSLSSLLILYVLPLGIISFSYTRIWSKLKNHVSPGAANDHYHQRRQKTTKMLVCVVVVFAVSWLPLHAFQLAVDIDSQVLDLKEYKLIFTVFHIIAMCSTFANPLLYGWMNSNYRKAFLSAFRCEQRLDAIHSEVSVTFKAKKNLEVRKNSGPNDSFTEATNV

[23] = target: T9, High affinity choline transporter 1 (Homo sapiens, UniProt Q9GZV3); assay: human choline transporter blockers, potency – cell-based, 5-point CRC, membrane potential dye, dose response (AID 504840); type: functional
T9 sequence (Q9GZV3 whole entry): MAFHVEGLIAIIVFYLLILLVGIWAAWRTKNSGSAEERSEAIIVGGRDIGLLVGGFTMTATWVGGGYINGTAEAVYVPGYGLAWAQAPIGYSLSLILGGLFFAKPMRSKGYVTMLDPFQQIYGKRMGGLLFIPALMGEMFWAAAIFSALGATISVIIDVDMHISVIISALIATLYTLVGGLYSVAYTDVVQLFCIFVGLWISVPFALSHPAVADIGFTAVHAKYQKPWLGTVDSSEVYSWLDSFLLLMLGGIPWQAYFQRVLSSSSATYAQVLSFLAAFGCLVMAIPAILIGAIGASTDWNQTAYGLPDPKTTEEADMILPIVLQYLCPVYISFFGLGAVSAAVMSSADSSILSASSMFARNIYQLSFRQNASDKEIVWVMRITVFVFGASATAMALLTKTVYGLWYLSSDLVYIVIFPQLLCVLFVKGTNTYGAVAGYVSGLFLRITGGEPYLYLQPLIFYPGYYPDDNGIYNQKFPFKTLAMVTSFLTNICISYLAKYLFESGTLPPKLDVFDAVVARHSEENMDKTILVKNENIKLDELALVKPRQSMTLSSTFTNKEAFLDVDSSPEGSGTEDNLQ

[24] = target: T9, High affinity choline transporter 1; assay: human choline transporter blockers, potency – cell-based, 10-point CRC, membrane potential dye, dose response (AID 588401); type: functional;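 also: membrane potential dye fluorescence of choline-evoked depolarization via CHT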
[25] = microbe, parasite or virus in culture; type: functional; conditions: Mycobacterium tuberculosis
[26] = system: HEK293; assay: Fluorescence-based counterscreen for potentiators or agonists of NPY-Y2: cell-based high-throughput dose response assay to identify inhibitors of cyclic nucleotide gated ion channel (CNGC) activity. In this assay, the parental HEK293 cell line transfected with a cyclic-nucleotide gated ion channel (CNGC)-based cAMP sensor is used to measure inhibition of isoproterenol-induced CNGC activity by test compound.; type: functional; conditions: Homo sapiens;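 also: stimulus is 1 µM isoproterenol at EC100 plus PDE inhibitor Ro 20-1724 at 25 µM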
[27] = target: T10, Polyadenylate-binding protein 1 (Homo sapiens, UniProt P11940); assay: MLLE binding blockers, Cy5 peptide tracer – biochemical, fluorescence polarization, Cy5-PAM2 peptide, secondary, miRNA deadenylation inhibitor project, dose response (AID 602260); type: functional; conditions: read-out: IC50_Mean
[28] = target: T10, Polyadenylate-binding protein 1; assay: MLLE domain peptide-binding blockers, IC50 – biochemical, fluorescence polarization, FITC-PAM2 peptide, dose response (AID 602259); type: functional; conditions: read-out: IC50_Mean

T1 sequence (Q79MP6 whole entry): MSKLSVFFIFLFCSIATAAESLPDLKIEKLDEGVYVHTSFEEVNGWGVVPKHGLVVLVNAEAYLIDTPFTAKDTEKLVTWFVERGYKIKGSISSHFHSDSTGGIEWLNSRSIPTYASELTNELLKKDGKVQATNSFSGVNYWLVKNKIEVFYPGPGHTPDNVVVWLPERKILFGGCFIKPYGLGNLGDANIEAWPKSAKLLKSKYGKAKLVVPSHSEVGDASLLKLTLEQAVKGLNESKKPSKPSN
T2 sequence (Q932Y6 whole entry): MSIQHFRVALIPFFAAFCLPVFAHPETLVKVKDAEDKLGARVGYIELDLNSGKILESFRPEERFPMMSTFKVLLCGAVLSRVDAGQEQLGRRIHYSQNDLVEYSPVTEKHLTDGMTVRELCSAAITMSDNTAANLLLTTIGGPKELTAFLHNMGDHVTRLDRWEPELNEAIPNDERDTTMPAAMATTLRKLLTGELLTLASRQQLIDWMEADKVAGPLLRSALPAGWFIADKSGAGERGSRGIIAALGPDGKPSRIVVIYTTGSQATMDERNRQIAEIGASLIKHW
T10 sequence (P11940 whole entry, the tested form may be a part): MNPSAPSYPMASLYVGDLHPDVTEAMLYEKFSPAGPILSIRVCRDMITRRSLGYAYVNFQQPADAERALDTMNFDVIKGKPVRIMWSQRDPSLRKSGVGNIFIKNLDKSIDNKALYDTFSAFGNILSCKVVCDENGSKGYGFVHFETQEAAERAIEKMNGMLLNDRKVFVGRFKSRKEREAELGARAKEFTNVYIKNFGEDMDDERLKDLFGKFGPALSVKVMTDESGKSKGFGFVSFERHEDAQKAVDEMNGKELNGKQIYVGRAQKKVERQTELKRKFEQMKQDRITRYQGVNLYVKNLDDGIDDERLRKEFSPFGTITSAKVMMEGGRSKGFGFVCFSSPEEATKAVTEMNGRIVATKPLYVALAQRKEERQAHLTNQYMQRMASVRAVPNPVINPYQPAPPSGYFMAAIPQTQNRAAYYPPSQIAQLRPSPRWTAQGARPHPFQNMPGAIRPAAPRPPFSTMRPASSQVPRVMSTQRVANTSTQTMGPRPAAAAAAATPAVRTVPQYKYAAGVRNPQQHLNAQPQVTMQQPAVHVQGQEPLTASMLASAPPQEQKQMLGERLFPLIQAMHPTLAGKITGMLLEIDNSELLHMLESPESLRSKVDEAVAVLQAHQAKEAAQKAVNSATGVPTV
T5 sequence (Q9P0U3 whole entry, the tested form may be a part): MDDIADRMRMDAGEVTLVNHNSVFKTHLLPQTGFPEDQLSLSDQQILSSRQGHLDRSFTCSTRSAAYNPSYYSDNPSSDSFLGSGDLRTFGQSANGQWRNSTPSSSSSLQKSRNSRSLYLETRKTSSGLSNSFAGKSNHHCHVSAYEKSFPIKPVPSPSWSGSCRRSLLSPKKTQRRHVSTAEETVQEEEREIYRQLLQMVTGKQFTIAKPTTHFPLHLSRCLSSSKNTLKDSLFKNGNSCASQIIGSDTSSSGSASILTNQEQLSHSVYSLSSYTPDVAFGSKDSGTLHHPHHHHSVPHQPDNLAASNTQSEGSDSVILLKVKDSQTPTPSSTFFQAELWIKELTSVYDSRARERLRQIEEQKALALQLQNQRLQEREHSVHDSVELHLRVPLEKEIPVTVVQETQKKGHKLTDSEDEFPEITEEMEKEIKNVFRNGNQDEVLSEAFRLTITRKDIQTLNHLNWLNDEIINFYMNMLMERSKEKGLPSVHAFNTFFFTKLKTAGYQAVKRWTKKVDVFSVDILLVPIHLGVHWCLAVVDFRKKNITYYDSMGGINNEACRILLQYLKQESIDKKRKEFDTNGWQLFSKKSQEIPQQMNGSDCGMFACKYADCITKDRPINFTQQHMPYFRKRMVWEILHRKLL
T3 sequence (P63165 whole entry): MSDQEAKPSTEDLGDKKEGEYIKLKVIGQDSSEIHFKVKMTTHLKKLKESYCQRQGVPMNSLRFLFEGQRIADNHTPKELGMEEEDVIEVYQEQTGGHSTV
Sequence of Beta-lactamase (Salmonella choleraesuis (strain SC-B67), UniProt Q5J463) (Q5J463 whole entry): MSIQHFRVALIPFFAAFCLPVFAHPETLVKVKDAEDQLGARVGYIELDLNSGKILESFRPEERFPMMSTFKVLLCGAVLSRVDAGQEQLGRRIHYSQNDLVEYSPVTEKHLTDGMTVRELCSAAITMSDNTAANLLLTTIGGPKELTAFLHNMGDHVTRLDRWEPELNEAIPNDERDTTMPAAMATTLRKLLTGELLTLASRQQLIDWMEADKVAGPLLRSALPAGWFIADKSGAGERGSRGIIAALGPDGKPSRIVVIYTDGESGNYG
Sequence of Tyrosine-protein phosphatase non-receptor type 5 (P54829 whole entry, the tested form may be a part): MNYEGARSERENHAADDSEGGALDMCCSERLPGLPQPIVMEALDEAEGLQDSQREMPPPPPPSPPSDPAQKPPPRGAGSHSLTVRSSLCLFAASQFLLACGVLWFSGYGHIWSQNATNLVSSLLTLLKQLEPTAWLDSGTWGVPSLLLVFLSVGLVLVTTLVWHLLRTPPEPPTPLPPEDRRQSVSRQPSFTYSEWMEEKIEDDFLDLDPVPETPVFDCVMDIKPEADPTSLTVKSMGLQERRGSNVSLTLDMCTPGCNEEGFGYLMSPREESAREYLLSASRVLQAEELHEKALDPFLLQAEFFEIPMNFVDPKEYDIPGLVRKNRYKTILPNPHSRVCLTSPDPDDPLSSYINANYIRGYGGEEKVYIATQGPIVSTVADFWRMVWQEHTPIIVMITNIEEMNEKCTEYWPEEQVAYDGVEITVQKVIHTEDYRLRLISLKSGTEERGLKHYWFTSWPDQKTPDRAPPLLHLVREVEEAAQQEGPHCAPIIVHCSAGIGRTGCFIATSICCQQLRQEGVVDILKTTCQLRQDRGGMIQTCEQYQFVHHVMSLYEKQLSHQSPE
Sequence of DNA repair and recombination protein RAD54-like (Q92698 whole entry): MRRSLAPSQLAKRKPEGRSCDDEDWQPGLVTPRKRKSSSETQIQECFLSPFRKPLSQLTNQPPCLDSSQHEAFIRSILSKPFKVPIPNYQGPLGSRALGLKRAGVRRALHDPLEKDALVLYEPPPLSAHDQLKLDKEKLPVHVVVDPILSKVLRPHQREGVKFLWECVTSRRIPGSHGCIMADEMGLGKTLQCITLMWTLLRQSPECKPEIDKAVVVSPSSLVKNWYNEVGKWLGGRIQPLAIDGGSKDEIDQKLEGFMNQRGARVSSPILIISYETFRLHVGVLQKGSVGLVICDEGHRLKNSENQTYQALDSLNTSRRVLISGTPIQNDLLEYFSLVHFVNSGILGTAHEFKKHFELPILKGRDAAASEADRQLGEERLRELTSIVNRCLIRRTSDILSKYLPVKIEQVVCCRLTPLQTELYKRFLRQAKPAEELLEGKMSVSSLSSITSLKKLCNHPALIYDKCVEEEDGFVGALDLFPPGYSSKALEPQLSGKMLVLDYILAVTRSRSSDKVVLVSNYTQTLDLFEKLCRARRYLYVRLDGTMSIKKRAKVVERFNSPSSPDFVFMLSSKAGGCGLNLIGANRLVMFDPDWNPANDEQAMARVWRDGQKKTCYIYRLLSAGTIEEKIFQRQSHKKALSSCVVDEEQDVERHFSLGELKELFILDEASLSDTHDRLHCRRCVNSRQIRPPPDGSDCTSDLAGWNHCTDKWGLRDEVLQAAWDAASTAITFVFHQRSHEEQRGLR
Sequence of Tyrosine-protein phosphatase non-receptor type 11 (Q06124 whole entry): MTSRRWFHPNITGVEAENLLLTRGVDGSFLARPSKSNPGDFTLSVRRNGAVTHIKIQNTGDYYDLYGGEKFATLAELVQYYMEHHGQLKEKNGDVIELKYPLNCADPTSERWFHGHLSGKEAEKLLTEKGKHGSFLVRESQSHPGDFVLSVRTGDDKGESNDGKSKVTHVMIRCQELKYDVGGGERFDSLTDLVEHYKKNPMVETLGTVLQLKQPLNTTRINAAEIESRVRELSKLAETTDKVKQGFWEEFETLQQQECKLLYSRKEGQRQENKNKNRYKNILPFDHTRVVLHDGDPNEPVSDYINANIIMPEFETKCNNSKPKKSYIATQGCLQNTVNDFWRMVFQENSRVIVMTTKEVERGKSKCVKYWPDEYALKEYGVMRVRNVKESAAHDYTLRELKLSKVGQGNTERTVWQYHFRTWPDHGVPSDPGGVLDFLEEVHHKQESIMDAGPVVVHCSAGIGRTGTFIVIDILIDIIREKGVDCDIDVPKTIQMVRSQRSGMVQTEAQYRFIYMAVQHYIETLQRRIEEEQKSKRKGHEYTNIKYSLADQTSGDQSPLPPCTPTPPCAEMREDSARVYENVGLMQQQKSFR
Sequence of Dual specificity protein phosphatase 3 (P51452 whole entry, the tested form may be a part): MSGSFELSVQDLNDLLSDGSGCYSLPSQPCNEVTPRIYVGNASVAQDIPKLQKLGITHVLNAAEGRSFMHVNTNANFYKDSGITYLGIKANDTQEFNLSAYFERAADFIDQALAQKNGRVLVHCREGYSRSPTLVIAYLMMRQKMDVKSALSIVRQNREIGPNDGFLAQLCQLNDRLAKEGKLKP

COc1ccc(C(=O)C2=C(O)C(=O)N(Cc3ccco3)C2c2cc(OC)ccc2OC)cc1 (stereo not drawn)
IC50 [1]: > 59.6 µM (inactive) | IC50 [2]: > 59.6 µM (inactive) | IC50 [3]: > 59.6 µM (inactive) | IC50 [4]: 12.8 µM (inactive) | IC50 [5]: 5.61 µM (active)

O=C1Nc2ccc3sc4ccccc4c3c2C1=O
CC50 [6]: > 50 µM (active) | IC50 [7]: 3.25 µM (active) | IC50 [8]: 8.19 µM (active) | IC50 [9]: 15.2 µM (active) | IC50 [10]: 4.35 µM (active) | IC50 [11]: > 66.6 µM (inactive) | IC50 [12]: 2.49 µM (active)

CCn1c(/C=C/c2cc(Br)ccc2O)nc2ccccc2c1=O
IC50 [13]: 12.5 µM (active) | IC50 [14]: 5.9 µM (active)

COc1cccc(-c2nc(N3CCN(Cc4ccccc4)CC3)c3ccccc3n2)c1O
AC50 [15]: 100 µM (inactive)

N#C/C(=N/Nc1ccc(OC(F)(F)F)cc1)C(N)=S
EC50 [16]: 44.9 µM (active) | EC50 [17]: 15 µM (active) | EC50 [18]: > 150 µM (not active) | EC50 [19]: > 150 µM (not active) | EC50 [20]: 33.3 µM (not active) | EC50 [21]: 1.67 µM (active) | EC50 [22]: > 35.4 µM (not active) | IC50 [23]: 7.16 µM (active) | IC50 [24]: 0.631 µM (active) | CC50 [25]: 8.05 µM (active) | EC50 [26]: > 35.4 µM (not active) | IC50 [27]: > 66 µM (inactive) | IC50 [28]: > 66 µM (inactive)
